From patent US9138013B2, “Sweet flavor modifier” (SENOMYX, INC., priority 2012, dated 2015)

Key:
human panelists [1] = experiment: Sucrose potentiation in Iced Coffee product prototype, paired comparison test; format: in vivo; conditions: Table 19: Iced Coffee, 8% Sucrose vs 4% Sucrose + 7.6 μM Compound K2; n = 33 (11 panelists × 3 reps)
Procedure: All samples were made in an Iced Coffee formulation consisting of Brewed Coffee, 2% milk, Sucrose and water. The samples were prepared using a 0.2% Compound stock made with 0.2% sodium bicarbonate and water. Tests samples are presented in pairs to the panelists and they are asked to determine which of the sample is sweeter.
(§1) In one paired comparison test, the panelist is presented with two different samples and asked to identify the sample which is sweeter. The samples within a paired comparison test are presented in a randomized, counterbalanced order. Panelists have up to a 1 minute delay between taste tests to clear the mouth of any tastes.
(§2) Binomial probability tables are used to determine the probability of the correct number of responses occurring for each test at alpha=0.05.

human panelists [2] = experiment: Paired comparison test, sweet flavor potentiation with sucrose or HFCS as the sweetener; format: in vivo
Procedure: (§3) Test samples containing experimental compounds are presented in pairs to the panelist and they are asked to determine which of the sample is sweeter. […] A group of 10-16 or more panelists participated in each test. Subjects refrained from eating or drinking (except water) for at least 1 hour prior to the test. Subjects rinsed with water several times to clean the mouth.
(§4) Taste tests were performed with sucrose or HFCS as the sweetener in the presence or absence of compound. A 0.2% stock solution of compound in water with sodium bicarbonate was prepared and then this stock solution was diluted in the final sample to achieve the targeted final concentration of compound. For the sample evaluated at pH 2.8 the pH of the solution is decreased to about pH 2.8 using citric acid. Taste samples were also prepared in a low sodium phosphate buffer (pH 7.1; “LSB”) lacking sucrose or HFCS to evaluate the taste of the compound alone. Low sodium phosphate buffer consists of 0.3 mM KCl, 0.5 mM Na2HPO4, and 0.175 mM KH2PO4. Sample volumes are usually 20 ml.
as §1, §2

human panelists [3] = experiment: Paired comparison test, taste of the compound alone in low sodium phosphate buffer (LSB); format: in vivo
Procedure: as §3, §4, §1, §2

Structure (SMILES)	Sample selected as sweeter by panelists, Total (human panelists [1])	Sample selected as sweeter by panelists, Total (human panelists [2]; Table 1-a: 12% Sucrose vs 6% Sucrose + 21 μM Compound Q1, pH 7.1, n = 30 (15 panelists × 2 reps))	Sample selected as sweeter by panelists, Total (human panelists [2]; Table 1-b: 12% Sucrose vs 6% Sucrose + 7.9 μM Compound Q1, pH 2.8, n = 42 (14 panelists × 3 reps))	Sample selected as sweeter by panelists, Total (human panelists [2]; Table 4-a: 12% Sucrose vs 6% Sucrose + 12.7 μM Compound J2, pH 7.1, n = 51 (17 panelists × 3 reps))	Sample selected as sweeter by panelists, Total (human panelists [2]; Table 4-b: 12% Sucrose vs 6% Sucrose + 12.7 μM Compound J2, pH 2.8, n = 45 (15 panelists × 3 reps))	Sample selected as sweeter by panelists, Total (human panelists [2]; Table 7-a: 11% Sucrose vs 6% Sucrose + 12.7 μM Compound K2, pH 7.1, n = 36 (12 panelists × 3 reps))	Sample selected as sweeter by panelists, Total (human panelists [2]; Table 7-b: 12% Sucrose vs 6% Sucrose + 7.6 μM Compound K2, pH 2.8, n = 36 (18 panelists × 2 reps))	Sample selected as sweeter by panelists, Total (human panelists [2]; Table 10: 12% Sucrose vs 6% Sucrose + 12.7 μM Compound L2, pH 7.1, n = 42 (14 panelists × 3 reps))	Sample selected as sweeter by panelists, Total (human panelists [2]; Table 13: 12% Sucrose vs 6% Sucrose + 11.9 μM Compound B1, pH 7.1, n = 34 (17 panelists × 2 reps))	Sample selected as sweeter by panelists, Total (human panelists [2]; Table 16: 10% Sucrose vs 6% Sucrose + 9.2 μM Compound F3, pH 7.1, n = 33 (11 panelists × 3 reps))	Sample selected as sweeter by panelists, Total (human panelists [3]; Table 3: 1% Sucrose vs LSB + 26.3 μM Compound Q1, n = 26 (13 panelists × 2 reps))	Sample selected as sweeter by panelists, Total (human panelists [3]; Table 6: 1% Sucrose vs LSB + 20.4 μM Compound J2, n = 26 (13 panelists × 2 reps))	Sample selected as sweeter by panelists, Total (human panelists [3]; Table 9: 1% Sucrose vs LSB + 12.7 μM Compound K2, n = 51 (17 panelists × 2 reps))	Sample selected as sweeter by panelists, Total (human panelists [3]; Table 12: 1% Sucrose vs LSB + 12.7 μM Compound L2, n = 36 (12 panelists × 3 reps))	Sample selected as sweeter by panelists, Total (human panelists [3]; Table 15: 1% Sucrose vs LSB + 11.9 μM Compound B1, n = 45 (15 panelists × 3 reps))	Sample selected as sweeter by panelists, Total (human panelists [3]; Table 18: 1% Sucrose vs LSB + 9.2 μM Compound F3, n = 30 (15 panelists × 2 reps))	melting point [°C]
OC[C@H]1O[C@@](CO)(O[C@H]2O[C@H](CO)[C@@H](O)[C@H](O)[C@H]2O)[C@@H](O)[C@@H]1O [Sucrose, sucrose]	16	18	24	28	20	20	21	19	19	16	14	14	29	19	19	16	
NC1=NS(=O)(=O)Nc2cccc(OC[C@H]3CCCN(C(=O)c4ccncc4)C3)c21 [Example 3, (S)-(3-(((4-amino-2,2-dioxido-1H-benzo[c][1,2,6]thiadiazin-5-yl)oxy)methyl)piperidin-1-yl)(pyridin-4-yl)methanone]																	> 250
